Measured values published in PubChem BioAssay (NCI).
Values joined by “and” are separate entries in the source; they are usually repeats but may differ in a detail not shown here. Equal values may be shown once.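 Compound exposure: 48 hours, 5 concentrations, 96-well plates. GI50 is the concentration that inhibits growth by half. TGI marks complete inhibition of growth.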

Legend:
Test in all cases: NCI tumour cell line growth inhibition, 48 h
[1] = test system: UO-31 renal
[2] = test system: NCI-H23 lung
[3] = test system: SK-MEL-2 melanoma
[4] = test system: T-47D breast
[5] = test system: EKVX NSCLC
[6] = test system: SK-MEL-5 melanoma
[7] = test system: 786-0 renal
[8] = test system: K-562 leukemia
[9] = test system: MALME-3M melanoma
[10] = test system: NCI/ADR-RES ovarian

Structure (SMILES)	GI50 [1]	TGI [1]	GI50 [2]	TGI [2]	GI50 [3]	TGI [3]	TGI [4]	GI50 [5]	TGI [5]	GI50 [6]	TGI [6]	GI50 [7]	TGI [7]	GI50 [8]	TGI [8]	GI50 [9]	TGI [9]	GI50 [10]	TGI [10]	GI50 [4]
O=C1/C(=C/c2ccc(O)c([N+](=O)[O-])c2)CCC/C1=C\c1ccc(O)c([N+](=O)[O-])c1	20.7 µM	25.5 µM and 39.5 µM	8.14 µM	32.6 µM and 25.2 µM	13 µM	32.2 µM and 27.2 µM	47.5 µM	15 µM	50 µM and 28.8 µM	14.7 µM	17.4 µM and 31.5 µM	43.7 µM	25.5 µM and > 100 µM	20.9 µM	50 µM and 64.4 µM	12.3 µM	26.3 µM and 26.2 µM	16.3 µM	50 µM and 41.7 µM	–
COc1c(C)c2c(c(O)c1C/C=C(\C)CCC(=O)OCCN1CCOCC1)C(=O)OC2	0.599 µM	> 100 µM	0.245 µM	> 100 µM	33.6 µM	> 100 µM	> 100 µM	–	> 100 µM	0.383 µM	> 100 µM	0.385 µM	> 100 µM	0.151 µM	> 100 µM	2.5 µM	> 100 µM	0.471 µM	> 100 µM	0.612 µM
COc1cc(Cl)cc(-c2nn(C(=O)NCCN3CCN(C)CC3)cc2-c2ccncc2)c1	11.6 µM	62 µM	20.1 µM	82 µM	19.3 µM	46 µM	> 100 µM	0.971 µM	37.1 µM	3.76 µM	16.7 µM	5.99 µM	25.6 µM	28.5 µM	> 100 µM	9.28 µM	43.4 µM	19.8 µM	88.5 µM	20.8 µM
N=C1c2nc3n(c2C(=O)c2nc4n(c21)CCCC4)CCCC3	4.03 µM	28.6 µM	1.37 µM	3.86 µM	23.4 µM	> 65 µM	> 100 µM	44.7 µM	> 100 µM	0.431 µM	0.864 µM	32.2 µM	> 89.3 µM	19.8 µM	> 100 µM	1.7 µM	3.7 µM	35.6 µM	> 100 µM	11.7 µM
CN(C)CCCN=C(N)N	–	> 100 µM	–	> 100 µM	–	> 100 µM	> 100 µM	–	> 100 µM	–	> 100 µM	–	> 100 µM	–	> 100 µM	–	> 100 µM	–	> 100 µM	–
COC(=O)COc1ccc(/C=C2\N=C(c3ccccc3)N(c3cc(C(F)(F)F)ccc3Cl)C2=O)cc1	27.1 µM	> 100 µM	> 100 µM	> 100 µM	83.5 µM	> 100 µM	> 100 µM	> 100 µM	> 100 µM	46.1 µM	> 100 µM	> 100 µM	> 100 µM	47.3 µM	> 100 µM	54.1 µM	> 100 µM	52.6 µM	> 100 µM	82.9 µM
c1ccc2[nH]c(SSc3nc4ncncc4[nH]3)nc2c1	0.559 µM	> 30.9 µM	2.9 µM	> 100 µM	2.72 µM	> 100 µM	98.9 µM	25.9 µM	> 100 µM	3.62 µM	> 100 µM	0.463 µM	> 100 µM	0.278 µM	> 100 µM	2.01 µM	> 66.1 µM	1.74 µM	> 100 µM	0.489 µM
CCN1C(=O)N(CC)C2C1NN=c1s/c(=C3\C(=O)N(CC(C)C)c4ccccc43)c(=O)n12 (stereo not drawn)	0.869 µM	> 100 µM	2.19 µM	> 100 µM	2.98 µM	27.8 µM	> 100 µM	1.56 µM	> 100 µM	0.436 µM	> 100 µM	1.02 µM	26.7 µM	0.429 µM	> 100 µM	0.885 µM	> 77.7 µM	0.479 µM	> 30.4 µM	0.311 µM
COc1ccc(C2=NN(C(=O)COc3ccc(Cl)cc3)C(O)(c3cc(F)c(Cl)cc3Cl)C2)cc1OC (stereo not drawn)	2.08 µM	5.14 µM	4.74 µM	17.8 µM	1.11 µM	3.24 µM	3.29 µM	10.5 µM	22.8 µM	8.29 µM	20.9 µM	3.31 µM	8.9 µM	1.55 µM	15.2 µM	1.72 µM	3.76 µM	2.94 µM	8.73 µM	1.51 µM
COc1cc(NC(=O)c2cc(OC)c3ccn(C)c3c2)cc2c1C[C@]1(C)CC[C@@H](O)C(C)(C)[C@H]1O2	2.46 µM	5.78 µM	17.3 µM	> 100 µM	6.1 µM	64.6 µM	> 100 µM	11.3 µM	> 100 µM	2.87 µM	9.08 µM	1.29 µM	4.08 µM	3.82 µM	39.3 µM	6.22 µM	70.5 µM	29.3 µM	> 100 µM	10.3 µM
Cc1ncc([N+](=O)[O-])n1CCNS(=O)(=O)CCCn1ccnc1[N+](=O)[O-]	–	> 100 µM	–	> 100 µM	–	> 100 µM	> 100 µM	–	> 100 µM	–	> 100 µM	–	> 100 µM	–	> 100 µM	–	> 100 µM	–	> 100 µM	–
OCC(O)C(O)C(O)C1SC(c2ccccc2)=NN1c1ccccc1 (stereo not drawn)	–	> 100 µM	–	> 95.7 µM	–	93.2 µM	> 70.3 µM	–	> 100 µM	–	> 100 µM	–	> 100 µM	–	> 100 µM	–	> 100 µM	–	> 100 µM	–
CC1(C)COCN1COC1CCCCC1	–	> 100 µM	–	> 100 µM	–	> 100 µM	> 100 µM	–	> 100 µM	–	> 100 µM	–	> 100 µM	–	> 100 µM	–	> 100 µM	–	> 100 µM	–
CC(C)(C)C(=O)Nc1ccccc1I(=O)=O	> 100 µM	> 100 µM	> 100 µM	> 100 µM	> 100 µM	> 100 µM	> 100 µM	> 100 µM	> 100 µM	> 100 µM	> 100 µM	> 100 µM	> 100 µM	> 100 µM	> 100 µM	> 100 µM	> 100 µM	> 100 µM	> 100 µM	> 100 µM
CCOC(=O)CCCn1c(SC)nc2cc(-c3ccco3)[nH]c2c1=O	72.6 µM	> 100 µM	90.5 µM	> 100 µM	36.4 µM	> 100 µM	> 100 µM	65.9 µM	> 100 µM	> 100 µM	> 100 µM	34.2 µM	> 100 µM	> 100 µM	> 100 µM	> 100 µM	> 100 µM	72.9 µM	> 100 µM	39.6 µM
O=C(NC1CC1)c1ccc(-c2nc3ccc4[nH]ncc4c3c3c2CCCC3)cc1	1.84 µM	13.5 µM	3.41 µM	31.3 µM	1.76 µM	7.36 µM	15.4 µM	1.33 µM	12.2 µM	2.67 µM	9.83 µM	2.11 µM	12.3 µM	1.95 µM	> 50 µM	3.46 µM	11.6 µM	6.56 µM	> 50 µM	1.62 µM
NCCCC(=O)Nc1ccncc1	> 100 µM	> 100 µM	> 100 µM	> 100 µM	> 100 µM	> 100 µM	> 100 µM	> 100 µM	> 100 µM	> 100 µM	> 100 µM	> 100 µM	> 100 µM	> 100 µM	> 100 µM	> 100 µM	> 100 µM	> 100 µM	> 100 µM	> 100 µM
Cn1ccc2c(NCCN)c3c(c(NCCN)c21)C(=O)c1ccccc1C3=O	1.52 µM	5.76 µM	1.68 µM	4.07 µM	2.33 µM	11.5 µM	62 µM	1.34 µM	5.3 µM	2.19 µM	4.99 µM	0.443 µM	3.95 µM	0.589 µM	83.6 µM	3.67 µM	15.2 µM	8.04 µM	26.7 µM	27.4 µM
